Source: article PMC2922380, “Binding of Protein Kinase Inhibitors to Synapsin I Inferred from Pair-Wise Binding Site Similarity Measurements” (PLoS ONE, 2010)
Read-outs that look alike come from different tables or passages of the source.

What was measured:
[1] = target: bovine synapsin I (Bos taurus, UniProt P17599); assay: ATP-γ35S binding competition assay on purified synapsin I; conditions: for maximal inhibition of ATP-γ35S binding to synapsin I: from curve fitting (lower plateau); for binding to synapsin I (result in words): ATP-γ35S competition, inhibitor 0.1–30 µM
Procedure: Synapsin I was purified from bovine brain [71] and stored in liquid nitrogen in 200 mM NaCl, 25 mM TrisCl, pH 7.4. […] ATP-γ^35S binding was quantified as previously described. Briefly, aliquots of the samples were spotted onto squares of phosphocellulose paper (Upstate/Millipore, Billerica, MA). The paper squares were extensively washed with deionized water for 30 min, air-dried and analyzed for radioactivity by using the Perkin Elmer Cyclone Plus Phosphor Imager. After subtraction of the background values (samples with no synapsin I), data from individual competition curves were fitted with a sigmoidal dose-response function (f = min +(max–min)/(1+10∧((logEC50-x)*Hillslope)) using the Sigmaplot 8.0 software (SPSS Inc., Chicago, IL) to yield IC50 and maximal inhibition values. Data in the plots are the means ± sem of at least 5 independent experiments.

[2] = test system: synapsin I / F-actin; assay: F-actin bundling activity of synapsin I, low speed sedimentation assay; assay type: biochemical, bovine; conditions: staurosporine 5 µM; synapsin I 0.5 µM, F-actin 5 µM; vs samples with F-actin and synapsin I only
Procedure: Actin was purified from acetone powder of rabbit skeletal muscles, [96] and stored in liquid nitrogen in 2 mM Tris pH 8, 0.2 mM ATP, 0,2 mM CaCl2, 0.125 mM β-mercaptoethanol and 0.005% NaN3 (G-buffer). Before the experiments, both G-actin and synapsin I were prespun for 1 h at 4°C at 300,000× g to remove large aggregates. G-actin was polymerized at room temperature for 1 h in the presence of 100 mM KCl, 1.2 mM MgCl2. […] Pellets were solubilized in sample buffer and analyzed by sodium dodecylsulfate polyacrylamide gel electrophoresis (SDS-PAGE) using 10% acrylamide in the resolving gel. Gels were fixed, stained with Coomassie Blue and destained. Densitometric analysis of the actin bands was carried out by using the ImageQuant system (GE Healthcare) followed by densitometric analysis of the fluorograms and by data interpolation into a standard curve of purified G-actin run in parallel with the unknown samples.

[3] = ATP-γ35S 0.2 µM, purified bovine synapsin I 0.5 µM
[4] = ATP-γ35S 0.2 µM, purified bovine synapsin I 0.5 µM, means ± sem from 5 independent experiments, read-out: IC50, inhibition of ATP-γ35S binding to synapsin I

Compound	maximal inhibition of ATP-γ35S binding to synapsin I [1, 3]	IC50 [1, 4] [nM]	binding to synapsin I (result in words) [1]	further results
Nc1ncnc2c1ncn2[C@@H]1O[C@H](COP(=O)(O)OP(=O)(O)OP(=O)(O)O)[C@@H](O)[C@H]1O [ATP]	95.8±2.2%	70 ± 10		
CCc1cc(-c2n[nH]c(C)c2-c2ccc3c(c2)OCCO3)c(O)cc1O [CCT018159]			inactive	
O=S(=O)(NCCNC/C=C/c1ccc(Br)cc1)c1cccc2cnccc12 [H-89]		> 30000		
Cc1nc2sccn2c(=O)c1CCN1CCC(=C(c2ccccc2)c2ccc(F)cc2)CC1 [R59022]			inactive	
O=C(O)CN1C(=O)c2c(I)c(I)c(I)c(I)c2C1=O [compound 70159800251]	ca. 70%	500		
O=c1c(O)c(-c2ccc(O)c(O)c2)oc2cc(O)c(O)c(O)c12 [quercetagetin]	88.3±4.9%			IC50 [1]: 150 nM
CN[C@@H]1C[C@H]2O[C@@](C)([C@@H]1OC)n1c3ccccc3c3c4c(c5c6ccccc6n2c5c31)C(=O)NC4 [staurosporine]	84.3±1.2%			increase in F-actin/synapsin I bundles recovered by low speed sedimentation [2]: approximately 30%; affinity to bovine synapsin I ([1]; in vitro competition assay, as restated in Discussion): about 0.3 µM
novobiocin			inactive	
